“Also recorded” adds a separate entry of the source.
Test system: NOD/SCID/MPSVII mice
Experiment: huMSC transplantation with LLP2A-Ale in immunodeficient mice
Type: in vivo, mouse
Source text: Human MSCs (huMSCs) were obtained and injected together with LLP2A-Ale to immunodeficient mice, NOD/SCID/mucopolysaccharidosis type VII (MPSVII). This mouse strain lacked the β-glucuronidase (GUSB) enzyme. The donor cells could be easily detected using biochemical detection of β-glucuronidase (See Meyerrose, T. E., et al., Stem Cells, 2007. 25(1): p. 220-7; Meyerrose, T. E., et al., Stem Cells, 2008. 26(7): p. 1713-22). At three-month of age, the mice received a single intravenous (i.v.) injection of either vehicle (100 μl PBS/mouse), huMSCs (5×10^5/100 μl/PBS/mouse), huMSCs+LLP2A (5 nM/mouse) or huMSCs+LLP2A-Ale (500 ng/mouse; total compound weight 3.5 μg, with alendronate concentration of 500 ng/mouse). The alendronate dose we used for the study was approximately one-fifth of the therapeutic dose for the treatment of osteoporosis (See Colon-Emeric, C. S., JAMA, 2006, 296(24): p. 2968-9; Ma, Y. L., et al., Endocrinology, 2003. 144(5): p. 2008-15). […] HuMSC, as shown by GUSB+red stain, were only present at the trabecular bone surface in the LLP2A-Ale-treated group (lower panel). There was no demonstrable GUSB activity in the lung, liver, kidney and LVB that received PBS (top panels) or huMSCs (middle panel). Cancellous bone mass in the vertebral body was—more than 40% higher in the group treated with MSC+LLP2A-Ale (cancellous bone volume, BV/TV 13.9±2.2%) compared to PBS (BV/TV 9.4±1.7%), MSC (BV/TV 10.2±1.9%) or MSC+LLP2A (BV/TV 10.5±0.5%) controls three weeks after a single injection of huMSC and LLP2A-Ale.
In FIG. 8, Three-month-old MSPVII mice received a single intravenous injection of either of PBS, huMSC (5×10^5) or huMSC+LLP2A or LLP2A-Ale. The mice were sacrificed 24 hours later. Following sacrifice, small portions of organ including lumbar vertebral bodies (LVB) were harvested and frozen in Optimal Cutting Temperature embedding media. The sections were stained using naphthol-AS-BI-β-Dglucuronide (GUSB) as a substrate. Representative sections from lung, liver, kidney and lumbar vertebral (LVB) trabecular bone regions were presented. […] Isolated GUSB-positive cells were also observed within bone marrow of the LVB in […] group.
The NOD-SCID MPSVII strain was the result of extensive backcrossing of the mutant GUSB allele from the B6.C-H-2^bm1/ByBirgus^mps/+ mouse onto the NOD/LtSz-scid background. Animals were bred and maintained at the Stem Cell Department of the UC Davis Medical Center under approved animal care protocols. Affected animals were generated by breeding mice heterozygous for the MPSVII mutation. Homozygous GUSB-deficient pups were identified at birth by biochemical analysis of toe tissue.
Serum levels of the amino terminal propeptide of type 1 procollagen (P1NP), osteocalcin and C-terminal telopeptides of type I collagen (CTX-I) were measured using mouse sandwich ELISA kits from Biomedical Technologies (Stroughton, Mass.) or Immunodiagnostic System (Fountain Hills, Ariz.). The manufacturer's protocols were followed and all samples were assayed in duplicate. A standard curve was generated from each kit and the absolute concentrations were extrapolated from the standard curve. The coefficients of variations (CVs) for inter-assay and intra-assay measurements were less than 10% for all assays and are similar to the manufacturer's references (Yao, W., et al., Arthritis Rheum, 2008, 58(6): p. 1674-86; Yao, W., et al., Arthritis Rheum, 2008, 58(11): p. 3485-3497).
After fixation in 4% paraformaldehyde, the right distal femurs, mid-femurs and the 5th lumbar vertebral bodies were dehydrated in graded concentrations of ethanol and xylene and embedded un-decalcified in methyl methacrylate. The frontal sections (8 μm thick) were cut using a vertical bed microtome (Leica/Jung 2265) and affixed to slides coated with a 2% gelatin solution. Unstained 8-μm-thick sections were used for assessing fluorochrome labeling and dynamic changes in bone. […]

[1] = 5th lumbar vertebral body, three weeks, co-injected with huMSC
[2] = serum, three weeks, co-injected with huMSC
[3] = three weeks following huMSCs transplantation

Cc1ccccc1NC(=O)Nc1ccc(CC(=O)N[C@@H](CCCCNC(=O)/C=C/c2cccnc2)C(=O)N[C@@H](CCCC(=O)O)C(=O)NC2(C(=O)NCCOCCOCCNC(=O)CCC(=O)NCCOCCOCCNC(=O)CCC(=O)N[C@@H](CCCCNC(=O)[C@H](N)CSC3CC(=O)N(CC4CCC(C(=O)NCCCC(O)(P(=O)(O)O)P(=O)(O)O)CC4)C3=O)C(N)=O)CCCCC2)cc1 (some centres unmarked) [LLP2A-Ale, LLP2A-Alendronate]
osteoblasts and osteocytes at cortical and trabecular bone regions in LVB (3 weeks following co-injection with GFP-labeled huMSCs): increased | mineral apposition rate [1]: significant increases | osteoblast surface [1]: significant increases | surface-based bone formation rate (BFR/BS) [1]: significant increases | huMSCs (GUSB+) on/adjacent to bone surface (24 hours after single i.v. injection of huMSCs with compound): greatly increased; also recorded: Significant amount; also recorded: seen accumulated in bone marrow, adjacent to both trabecular and periosteal bone surfaces | intra-cortical bone remodeling (mid-femur, three weeks, co-injected with huMSC): markedly increased | osteocalcin [2]: significant increases | procollagen 1 N-terminal propeptide (P1NP) [2]: significant increases | cancellous bone mass in the vertebral body, higher compared to controls (three weeks after single injection of huMSC and compound, vs PBS, MSC, MSC+LLP2A): more than 40% | huMSCs (GUSB+) adjacent to/retained in bone (three weeks after transplantation, co-injected with huMSCs): only seen adjacent to the bone surface; also recorded: retention of the transplanted huMSCs in bone | cortical bone formation [3]: increases | trabecular bone formation [3]: increases | bone formation rates at endocortical and periosteal surfaces of the mid-femur, increase (three weeks, co-injected with huMSC): 50-100% | cancellous bone volume, BV/TV (vertebral body, three weeks after single injection of huMSC with or without compound): 13.9±2.2%

From patent US9119884B2, “LLP2A-bisphosphonate conjugates for osteoporosis treatment” (The Regents of the University of California, priority 2010, dated 2015)
